In patent publication US6632834B2, “Compositions and methods for treating conditions responsive to estrogen” (Pfizer Inc., priority 2000, dated 2003):

Experiments:
MCF-7 cells = test: Inhibition of in vitro human breast tumor cell growth (direct cell counts), ER-positive cells; format: cell-based; conditions: MCF-7 (ER-positive), 6 days incubation
Procedure: (§1) The in vitro antiproliferative effects of (−)-cis-6-phenyl-5-[4-(2-pyrrolidin-1-yl-ethoxy)-phenyl]-5,6,7,8-tetrahydro-naphthalene-2-ol (PPTN) were tested using two types of human breast cancer cell lines: first, MCF-7 cells, which contain ER as well as progesterone receptors (PgR), and second, MDA-MB-231 cells, which lack ER and PgR, and enable the determination of an effect that is independent of the ER mechanism. The effect of PPTN on the growth of these different cell lines was determined by incubation of the cells with various compound concentrations for 6 days.
(§2) The antiproliferative effects were then determined by direct cell counts. PPTN inhibited the growth of the ER-positive cell line MCF-7.

MDA-MB-231 cells = test: Inhibition of in vitro human breast tumor cell growth (direct cell counts), ER-negative cells; format: cell-based; conditions: MDA-MB-231 (ER-negative), 6 days incubation
Procedure: as §1, §2

Oc1ccc2c(c1)CC[C@H](c1ccccc1)[C@@H]2c1ccc(OCCN2CCCC2)cc1 [PPTN, (−)-cis-6-phenyl-5-[4-(2-pyrrolidin-1-yl-ethoxy)-phenyl]-5,6,7,8-tetrahydro-naphthalene-2-ol]
IC50 for growth inhibition (MCF-7 cells): 3 to 5×10^−11 M
inhibition of cell proliferation (MDA-MB-231 cells): did not inhibit cell proliferation
